Literature values, collected in PMC3099137 (Bioorganic & medicinal chemistry, 2011).

Columns and labels:
[1] = mice, attributed to in vivo defluorination
EGFR tyrosine kinase = details: read-out: IC50, inhibition of EGFR tyrosine kinase activity

SMILES	bone uptake (in words) [1]	IC50 (EGFR tyrosine kinase) [nM]
COc1cc2ncnc(Nc3ccc([18F])c(Cl)c3)c2cc1OC [4-(3-chloro-4-[^18F]fluoroanilino)-6,7-dimethoxy-quinazoline]	high bone uptake	–
COc1cc2ncnc(Nc3cccc(Br)c3)c2cc1OC [PD153035, 6,7-dimethoxy-4-(3-bromoanilino)quinazoline]	–	0.025
CCOc1cc2ncnc(Nc3cccc(Br)c3)c2cc1OCC [diethoxy- derivative]	–	0.006
